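48-hour exposure; five concentrations; linearly interpolated endpoints. Definition used: TGI = concentration required for complete inhibition of growth.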
Key:
Test in all cases: NCI tumour cell line growth inhibition, 48 h
[1] = tested on: 786-0 renal
[2] = tested on: A498 renal
[3] = tested on: A549 NSCLC
[4] = tested on: ACHN renal
[5] = tested on: BT-549 breast
[6] = tested on: CAKI-1 renal
[7] = tested on: CCRF-CEM leukemia
[8] = tested on: COLO 205 colon
[9] = tested on: DU-145 prostate
[10] = tested on: EKVX NSCLC
[11] = tested on: HCC-2998 colon
[12] = tested on: HCT-116 colon
[13] = tested on: HCT-15 colon
[14] = tested on: HL-60(TB) leukemia
[15] = tested on: HOP-62 NSCLC
[16] = tested on: HOP-92 NSCLC
[17] = tested on: HS 578T breast
[18] = tested on: HT29 colon
[19] = tested on: IGROV1 ovarian
[20] = tested on: K-562 leukemia
[21] = tested on: KM12 colon
[22] = tested on: LOX IMVI melanoma
[23] = tested on: M14 melanoma
[24] = tested on: MALME-3M melanoma
[25] = tested on: MCF7 breast
[26] = tested on: MDA-MB-435
[27] = tested on: MDA-N
[28] = tested on: MOLT-4 leukemia
[29] = tested on: NCI-H23 lung
[30] = tested on: NCI-H460 lung
[31] = tested on: NCI-H522 lung
[32] = tested on: NCI/ADR-RES ovarian
[33] = tested on: OVCAR-3 ovarian
[34] = tested on: OVCAR-4 ovarian
[35] = tested on: OVCAR-5 ovarian
[36] = tested on: OVCAR-8 ovarian
[37] = tested on: PC-3 prostate
[38] = tested on: RXF 393 renal
[39] = tested on: SF-268 CNS
[40] = tested on: SF-295 CNS
[41] = tested on: SF-539 CNS
[42] = tested on: SK-MEL-2 melanoma
[43] = tested on: SK-MEL-5 melanoma
[44] = tested on: SK-OV-3 ovarian
[45] = tested on: SN12C renal
[46] = tested on: SNB-19 CNS
[47] = tested on: SNB-75 CNS
[48] = tested on: SR leukemia
[49] = tested on: SW-620 colon
[50] = tested on: T-47D breast
[51] = tested on: TK-10 renal
[52] = tested on: U251 CNS
[53] = tested on: UACC-257 melanoma
[54] = tested on: UACC-62 melanoma
[55] = tested on: UO-31 renal
[56] = tested on: MDA-MB-231 breast
[57] = tested on: NCI-H226 lung
[58] = tested on: RPMI-8226 leukemia
[59] = tested on: SK-MEL-28 melanoma

CC[C@@]1(C[C@H]2C[C@@]3(C(=O)OC)c4[nH]c5ccccc5c4CCN3C2=S)COC2(CCCCC2)O1
TGI [1]: > 100 µM
TGI [2]: > 100 µM
TGI [3]: > 100 µM
TGI [4]: > 100 µM
TGI [5]: 41.6 µM
TGI [6]: > 100 µM
TGI [7]: > 100 µM
TGI [8]: > 100 µM
TGI [9]: > 100 µM
TGI [10]: > 100 µM
TGI [11]: > 100 µM
TGI [12]: > 100 µM
TGI [13]: > 100 µM
TGI [14]: > 100 µM
TGI [15]: > 100 µM
TGI [16]: > 100 µM
TGI [17]: > 100 µM
TGI [18]: > 100 µM
TGI [19]: > 100 µM
TGI [20]: > 100 µM
TGI [21]: 67.8 µM
TGI [22]: > 100 µM
TGI [23]: > 100 µM
TGI [24]: > 100 µM
TGI [25]: > 100 µM
TGI [26]: > 100 µM
TGI [27]: > 100 µM
TGI [28]: > 100 µM
TGI [29]: > 100 µM
TGI [30]: > 100 µM
TGI [31]: > 100 µM
TGI [32]: > 100 µM
TGI [33]: > 100 µM
TGI [34]: > 100 µM
TGI [35]: > 100 µM
TGI [36]: > 100 µM
TGI [37]: > 100 µM
TGI [38]: > 100 µM
TGI [39]: > 100 µM
TGI [40]: > 100 µM
TGI [41]: > 100 µM
TGI [42]: > 100 µM
TGI [43]: 39 µM
TGI [44]: > 100 µM
TGI [45]: > 100 µM
TGI [46]: > 100 µM
TGI [47]: > 100 µM
TGI [48]: > 100 µM
TGI [49]: 36.2 µM
TGI [50]: > 100 µM
TGI [51]: 87.7 µM
TGI [52]: > 100 µM
TGI [53]: > 100 µM
TGI [54]: > 100 µM
TGI [55]: > 100 µM

COC(=O)Nc1nc2ccc(NS(=O)(=O)c3ccc(Cl)cc3)cc2[nH]1
TGI [1]: 56.3 µM
TGI [2]: 9.91 µM
TGI [3]: 72.1 µM
TGI [4]: > 100 µM
TGI [5]: 55.2 µM
TGI [6]: 21.1 µM
TGI [7]: 56.9 µM
TGI [8]: 24.5 µM
TGI [9]: 62.6 µM
TGI [10]: 33.2 µM
TGI [12]: 11.1 µM
TGI [13]: > 100 µM
TGI [14]: 12.6 µM
TGI [15]: 31.5 µM
TGI [16]: 8.55 µM
TGI [17]: 8.86 µM
TGI [18]: 15.5 µM
TGI [19]: 7.81 µM
TGI [20]: > 100 µM
TGI [21]: 14.9 µM
TGI [22]: 16.9 µM
TGI [23]: 23.4 µM
TGI [24]: 43.7 µM
TGI [25]: 35.7 µM
TGI [56]: 28.5 µM
TGI [26]: 5.5 µM
TGI [27]: 5.93 µM
TGI [28]: > 100 µM
TGI [57]: 47.2 µM
TGI [29]: 36.9 µM
TGI [30]: 43.1 µM
TGI [31]: 8.19 µM
TGI [32]: 47.7 µM
TGI [33]: 10.7 µM
TGI [34]: 51.5 µM
TGI [35]: 44.6 µM
TGI [36]: 54.7 µM
TGI [37]: 54.3 µM
TGI [58]: 26.8 µM
TGI [38]: 26.4 µM
TGI [39]: 67 µM
TGI [40]: 19.2 µM
TGI [41]: 30.4 µM
TGI [42]: 26.8 µM
TGI [59]: 27.3 µM
TGI [43]: 16.7 µM
TGI [44]: 44.2 µM
TGI [45]: 72.3 µM
TGI [46]: 29.6 µM
TGI [47]: 7.59 µM
TGI [49]: > 100 µM
TGI [50]: 60.7 µM
TGI [51]: 17.7 µM
TGI [52]: 47.5 µM
TGI [54]: 33.5 µM
TGI [55]: 40.7 µM
